We go through 42 compounds from US20250195483A1, “SPIRO PIPERIDINE DERIVATIVES AS INHIBITORS OF APOL1 AND METHODS OF USING SAME” (Vertex Pharmaceuticals Incorporated, priority 2022, published 2025).

The target of the experiment is T1, APOL1 (Homo sapiens, UniProt O14791).
T1 sequence (O14791 1-398): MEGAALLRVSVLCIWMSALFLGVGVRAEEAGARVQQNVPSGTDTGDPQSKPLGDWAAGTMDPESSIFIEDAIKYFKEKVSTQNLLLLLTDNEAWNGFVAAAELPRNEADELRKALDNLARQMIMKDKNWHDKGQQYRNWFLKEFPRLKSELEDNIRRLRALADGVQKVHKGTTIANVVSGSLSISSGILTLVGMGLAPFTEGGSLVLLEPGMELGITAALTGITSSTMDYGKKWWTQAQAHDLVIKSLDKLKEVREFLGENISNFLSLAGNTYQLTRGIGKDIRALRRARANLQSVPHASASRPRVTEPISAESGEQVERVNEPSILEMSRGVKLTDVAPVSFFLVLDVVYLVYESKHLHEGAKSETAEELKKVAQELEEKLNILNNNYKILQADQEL
Put plainly: MultiTox-Fluor Multiplex Cytotoxicity Assay, tet-inducible APOL1 T-REx-HEK293 cells (G0, G1 or G2 clone not specified for Table 20). It counts as cell-based. The following applies: tet-induced, 24 hours with compound, ratio of dead to live cells, read-out: IP50 (i.e., IC50 for cell proliferation). As to the method:
Human embryonic kidney (HEK293) cell lines containing a tet-inducible expression system (T-REx™; Invitrogen, Carlsbad, CA) and Adeno-associated virus site 1 pAAVS1-Puro-APOL1 G0 or pAAVS1-Puro-APOL1 G1 or pAAVS1-Puro-APOL1 G2 Clones G0 DC2.13, G1 DC3.25, and G2 DC4.44 were grown in a T-225 flask at ˜90% confluency in cell growth media (DMEM, 10% Tet-free FBS, 2 mM L-glutamine, 100 Units/mL penicillin-streptomycin, 5 μg/mL blasticidin S HCl, 1 μg/mL puromycin dihydrochloride). Cells were washed with DPBS and then trypsinized to dissociate from the flask. Media was used to quench the trypsin, cells were then pelleted at 200 g and resuspended in fresh cell assay media (DMEM, 2% Tet-free FBS, 2 mM L-glutamine, 100 Units/mL penicillin-streptomycin). Cells were counted and diluted to 1.17×10^6 cells/mL. 20 μL of cells (23,400/well) were dispensed in every well of a 384-well Poly-D-Lysine coated plate using the Multidrop dispenser. The plates were then incubated at room temperature for one hour.
Tetracycline is needed to induce APOL1 expression. 1 mg/mL tet stock in water was diluted to 250 ng/mL (5×) in cell assay media. 60 μL of cell assay media (no tet control) was dispensed in columns 1 and 24, and 60 μL of 5× tet in 384-PP-round bottom plate was dispensed in columns 2 to 23 with the Multidrop dispenser.
Assay ready plates from the Global Compound Archive were ordered using template 384_APOL1Cell_DR10n2_50 uM_v3. Compounds were dispensed at 200 nL in DMSO. The final top concentration was 10 μM with a 10 point 3-fold dilution in duplicate in the MultiTox assay.
20 μL was transferred from the 5× tet plate to the ARP and mixed, then 5 μL of 5× tet and the compounds were transferred to the cell plate and mixed using the Bravo. The cell plate was placed in the humidified 37° C. 5% CO2 incubator for 24 hours.
The MultiTox-Fluor Multiplex Cytotoxicity Assay was performed in accordance with the manufacturer's protocol. After cells were incubated with tet and compound for 24 hours, 25 μL of 1× MultiTox reagent was added to each well using the Multidrop dispenser; the plates were placed on a plate shaker (600 rpm) for 2 minutes, then centrifuged briefly and placed back in the 37° C. incubator for 30 minutes. The cell viability (excitation: 400 nm, emission: 486 nm) and cytotoxicity (excitation: 485 nm, emission: 535 nm) were read using the EnVision plate reader. A ratio of dead (cytotoxicity) to live (viability) cells was reported. Data was exported and analyzed in Genedata. Data was normalized using percent of control, no tet (100% viability), and 50 ng/mL tet treated (0% viability), and fit using Smart Fit settings in Genedata.
With `NC(=O)C1OC2(CCN(Cc3cnn(-c4ccccc4)c3)CC2)c2cc(Cl)ccc21` (single isomer, unassigned) [Compound 193, 5-chloro-1′-[(1-phenylpyrazol-4-yl)methyl]spiro[1H-isobenzofuran-3,4′-piperidine]-1-carboxamide], the IC50 lay in the range of 50 to 500 nM.
Regarding `NC(=O)C1OC2(CCN(Cc3cnn(-c4ccccc4)c3)CC2)c2cc(Cl)ccc21` (single isomer, unassigned) [Compound 194, 5-chloro-1′-[(1-phenylpyrazol-4-yl)methyl]spiro[1H-isobenzofuran-3,4′-piperidine]-1-carboxamide], the IC50 was no more than 50 nM.
Regarding `Cc1ccc2c(c1)C1(CCN(Cc3cn(CCS(C)(=O)=O)nn3)[C@@H](C)C1)OC2(C)C` (single isomer, unassigned) [Compound 290, (2′S)-2′,3,3,6-tetramethyl-1′-((1-(2-(methylsulfonyl)ethyl)-1H-1,2,3-triazol-4-yl)methyl)-3H-spiro[isobenzofuran-1,4′-piperidine]], the IC50 was no less than 500 nM.
With `C[C@H]1CC2(CCN1Cc1cn(CCS(C)(=O)=O)nn1)OC(C)(C)c1ccc(Cl)cc12` (single isomer, unassigned) [Compound 291, (2′S)-5-chloro-1,1,2′-trimethyl-1′-[[1-(2-methylsulfonylethyl)triazol-4-yl]methyl]spiro[isobenzofuran-3,4′-piperidine]], the IC50 was no less than 500 nM.
Regarding `C[C@H]1CC2(CCN1Cc1cnn(-c3ccccc3)c1)OC(C(N)=O)c1ccc(Cl)cc12` (single isomer, unassigned) [Compound 293, (2′S)-5-chloro-2′-methyl-1′-[(1-phenylpyrazol-4-yl)methyl]spiro[1H-isobenzofuran-3,4′-piperidine]-1-carboxamide], the IC50 was 50 to 500 nM.
With `CNC(=O)C1OC2(CCN(Cc3cnn(-c4ccccc4)c3)[C@@H](C)C2)c2cc(Cl)ccc21` (single isomer, unassigned) [Compound 294, (2′S)-5-chloro-N,2′-dimethyl-1′-[(1-phenylpyrazol-4-yl)methyl]spiro[1H-isobenzofuran-3,4′-piperidine]-1-carboxamide], the IC50 was no less than 500 nM.
As for `C[C@H]1CC2(CCN1Cc1cnn(CCS(C)(=O)=O)c1)CC(O)c1ccc(Cl)cc12` (single isomer, unassigned) [Compound 306, (2′S)-5-chloro-2′-methyl-1′-[[1-(2-methylsulfonylethyl)pyrazol-4-yl]methyl]spiro[indane-3,4′-piperidine]-1-ol], the IC50 is no more than 50 nM.
Turning to `C[C@H]1CC2(CCN1Cc1cnn(CCS(C)(=O)=O)c1)CC(O)c1ccc(Cl)cc12` (single isomer, unassigned) [Compound 307, (2′S)-5-chloro-2′-methyl-1′-[[1-(2-methylsulfonylethyl)pyrazol-4-yl]methyl]spiro[indane-3,4′-piperidine]-1-ol], the IC50 is no more than 50 nM.
The same measure for `C[C@H]1CC2(CCN1Cc1cnn(CCS(C)(=O)=O)c1)C(=O)Nc1ccc(Cl)cc12` (stereo in doubt) [Compound 74, (2′S, 3R)-5-chloro-2′-methyl-1′-[[1-(2-methylsulfonylethyl)pyrazol-4-yl]methyl]spiro[indoline-3,4′-piperidine]-2-one]: no less than 500 nM.
In the case of `CS(=O)(=O)CCn1cc(CN2CCC3(CC2)C(=O)Nc2ccc(Cl)cc23)cn1` [Compound 1, 5-chloro-1′-[[1-(2-methylsulfonylethyl)pyrazol-4-yl]methyl]spiro[indoline-3,4′-piperidine]-2-one], the IC50 was 50 to 500 nM.
The same measure for `CC(CO)(CO)Cn1cc(CN2CCC3(CC2)C(=O)Nc2ccc(Cl)cc23)cn1` [Compound 2]: no more than 50 nM; for `Nc1ncc(CN2CCC3(CC2)C(=O)Nc2ccc(Cl)cc23)s1` [Compound 3]: 50 to 500 nM; for `O=C1Nc2ccc(Cl)cc2C12CCN(Cc1cnn(CCO)c1)CC2` [Compound 4]: no less than 500 nM.
On to `COc1cncc(CN2CCC3(CC2)C(=O)Nc2ccc(Cl)cc23)c1` [Compound 5], for which the IC50 was no less than 500 nM.
The same measure for `CC(=O)Nc1ccc(CN2CCC3(CC2)C(=O)Nc2ccc(Cl)cc23)cc1` [Compound 6]: 50 to 500 nM.
For the compound `CC(C)Oc1ccc(CN2CCC3(CC2)C(=O)Nc2ccc(Cl)cc23)cc1` [Compound 7], the IC50 was in the range of 50 to 500 nM.
In the case of `COc1ccc(CN2CCC3(CC2)C(=O)Nc2ccc(Cl)cc23)cc1F` [Compound 8], the IC50 is 50 to 500 nM.
In the case of `CN(C)c1ncc(CN2CCC3(CC2)C(=O)Nc2ccc(Cl)cc23)cn1` [Compound 9], the IC50 lay in the range of 50 to 500 nM.
The same measure for `CC(C)(CO)Nc1ncc(CN2CCC3(CC2)C(=O)Nc2ccc(Cl)cc23)cn1` [Compound 10]: 50 to 500 nM.
As for `O=C1Nc2ccc(Cl)cc2C12CCN(Cc1cn[nH]c1)CC2` [Compound 11], the IC50 was 50 to 500 nM.
Turning to `CCO/N=C(\C)c1ccc(CN2CCC3(CC2)C(=O)Nc2ccc(Cl)cc23)cn1` [Compound 12], the IC50 fell in the range of 50 to 500 nM.
As to `Cn1cc(CN2CCC3(CC2)C(=O)Nc2ccc(Cl)cc23)cn1` [Compound 13], the IC50 is 50 to 500 nM.
`O=C1Nc2ccc(Cl)cc2C12CCN(Cc1cccc(OC(F)F)c1)CC2` [Compound 14]: the IC50 is no less than 500 nM.
The same measure for `N#Cc1ccc(CN2CCC3(CC2)C(=O)Nc2ccc(Cl)cc23)c(F)c1` [Compound 15]: no less than 500 nM; for `O=C1Nc2ccc(Cl)cc2C12CCN(Cc1ccc(OC(F)F)cc1)CC2` [Compound 19]: no less than 500 nM.
Turning to `N#Cc1cc(CN2CCC3(CC2)C(=O)Nc2ccc(Cl)cc23)ccn1` [Compound 20], the IC50 is no less than 500 nM.
Regarding `CS(=O)(=O)CCn1cc(CN2CCC3(CC2)C(=O)Nc2ccc(F)cc23)cn1` [Compound 21], the IC50 is no less than 500 nM.
With `CS(=O)(=O)CCn1cc(CN2CCC3(CC2)C(=O)Nc2ccc(Br)cc23)cn1` [Compound 22] the figure was 50 to 500 nM; with `Cc1ccc2c(c1)C1(CCN(Cc3cnn(CCS(C)(=O)=O)c3)CC1)C(=O)N2` [Compound 23], 50 to 500 nM.
With `Cc1ccc2c(c1)C1(CCN(Cc3cnn(CC4(C)COC4)c3)CC1)C(=O)N2` [Compound 24], the IC50 was no less than 500 nM.
For the compound `Cc1ccc2c(c1)C1(CCN(Cc3cnn(CC(=O)N(C)C)c3)CC1)C(=O)N2` [Compound 25], the IC50 was no less than 500 nM.
In the case of `Cc1ccc2c(c1)C1(CCN(Cc3cnn(CCO)c3)CC1)C(=O)N2` [Compound 26], the IC50 was no less than 500 nM.
With `COCCn1cc(CN2CCC3(CC2)C(=O)Nc2ccc(C)cc23)cn1` [Compound 27] the figure was no less than 500 nM; with `CNC(=O)Cn1cc(CN2CCC3(CC2)C(=O)Nc2ccc(C)cc23)cn1` [Compound 28], no less than 500 nM.
On to `CS(=O)(=O)CCn1cc(CN2CCC3(CC2)C(=O)Nc2c(CO)cc(Cl)cc23)cn1` [Compound 29], for which the IC50 is no more than 50 nM.
`CS(=O)(=O)CCn1cc(CN2CCC3(CC2)C(=O)Nc2ccc(C#N)cc23)cn1` [Compound 30]: the IC50 is no less than 500 nM.
The same measure for `CS(=O)(=O)CCn1cc(CN2CCC3(CC2)C(=O)Nc2ccc(CC(F)F)cc23)cn1` [Compound 31]: no less than 500 nM; for `CS(=O)(=O)CCn1cc(CN2CCC3(CC2)C(=O)Nc2ccc(C(F)C(F)F)cc23)cn1` (stereo not drawn) [Compound 32]: no less than 500 nM.
The same measure for `CS(=O)(=O)CCn1cc(CN2CCC3(CC2)C(=O)Nc2ccc(C(F)F)cc23)cn1` [Compound 33]: 50 to 500 nM; for `Cn1cc(CN2CCC3(CC2)C(=O)Nc2ccc(CC(F)F)cc23)cn1` [Compound 34]: no less than 500 nM.
For the compound `O=C1Nc2ccc(CC(F)F)cc2C12CCN(Cc1cn[nH]c1)CC2` [Compound 35], the IC50 is no less than 500 nM.
For the compound `CS(=O)(=O)CCn1cc(CN2CCC3(CC2)C(=O)Nc2c(Cl)cc(Cl)cc23)cn1` [Compound 36], the IC50 fell in the range of 50 to 500 nM.
